Results as given in US8258134B2, “Pyridazinone glucokinase activators” (Hoffmann-La Roche Inc., priority 2008, dated 2012).

The compounds below were run against T1, Recombinant human liver GK1 (GST-GK) (Homo sapiens, UniProt P35557) (assay: Glucokinase in vitro assay (G6PDH-coupled NADH generation, OD340)). Details: 5 mM D-glucose, 30° C., pH 7.1, 10% DMSO.
T1 construct: made in house; host or cells: E. coli
T1 sequence (P35557 1-466 isoform P35557-2): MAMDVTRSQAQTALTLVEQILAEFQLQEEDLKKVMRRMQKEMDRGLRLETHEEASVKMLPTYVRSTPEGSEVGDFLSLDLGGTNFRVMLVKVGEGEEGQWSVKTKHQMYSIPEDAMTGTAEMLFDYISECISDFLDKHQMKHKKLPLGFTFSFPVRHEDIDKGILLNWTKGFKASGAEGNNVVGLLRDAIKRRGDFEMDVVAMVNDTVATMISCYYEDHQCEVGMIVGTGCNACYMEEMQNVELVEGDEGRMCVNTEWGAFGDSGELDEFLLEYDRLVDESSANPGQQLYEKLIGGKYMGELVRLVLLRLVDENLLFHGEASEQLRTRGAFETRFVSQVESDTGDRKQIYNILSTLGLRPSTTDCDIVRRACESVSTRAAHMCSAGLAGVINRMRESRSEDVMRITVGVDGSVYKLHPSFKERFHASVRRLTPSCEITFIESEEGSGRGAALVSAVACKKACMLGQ
Format: biochemical
Method: Glucokinase In Vitro Assay Protocol: Glucokinase (GK) was assayed by coupling the production of glucose-6-phosphate to the generation of NADH with glucose-6-phosphate dehydrogenase (G6PDH, 0.75-1 k units/mg; Boehringer Mannheim, Indianapolis, Ind.) from Leuconostoc mesenteroides as the coupling enzyme (Scheme 2):
Recombinant human liver GK1 was expressed in E. coli as a glutathione S-transferase fusion protein (GST-GK) [Liang et al, 1995] and was purified by chromatography over a glutathione-Sepharose 4B affinity column using the procedure provided by the manufacturer (Amersham Pharmacia Biotech, Piscataway, N.J.).
The assay was conducted at 30° C. in a flat bottom 96-well tissue culture plate from Costar (Cambridge, Mass.) with a final incubation volume of 120 μL. The incubation reaction contained the following: 25 mM Hepes buffer (pH 7.1), 25 mM KCl, 5 mM D-glucose, 1 mM ATP, 1.8 mM NAD, 2 mM MgCl2, 1 μM sorbitol-6-phosphate, 1 mM dithiothreitol, test drug or 10% DMSO, ˜7 units/ml G6PDH, and GK (see below). All organic reagents were >98% pure and were from Boehringer Mannheim with the exceptions of D-glucose and Hepes which were from Sigma Chemical Co, St Louis, Mo. Test compounds were dissolved in DMSO and were added to the incubation reaction minus GST-GK in a volume of 12 μL to yield a final DMSO concentration of 10%. This mix was pre-incubated in the temperature controlled chamber of a SPECTRAmax 250 microplate spectrophotometer (Molecular Devices Corporation, Sunnyvale, Calif.) for 10 minutes to allow temperature equilibrium and then the reaction was started by the addition of 20 μL GST-GK.
After addition of enzyme, the increase in optical density (OD) at 340 nm was monitored spectrophotometrically to determine the rate of change (OD340 per min). The GK activity (OD340/min) in control wells (10% DMSO minus GK activators) was compared with the activity in wells containing test GK activators, and the concentration of activator that produced a 50% increase in the activity of GK, i.e., the SC1.5, was calculated. The table below provides the in vitro glucokinase activity for the compounds in the Examples: […]
In the case of `CC(C)(O)Cn1ccc(NC(=O)[C@@H](CC2CCCC2)n2ncc(Oc3ccc(F)cc3F)cc2=O)n1` [Example 32B, (R)-3-Cyclopentyl-2-[4-(2,4-difluoro-phenoxy)-6-oxo-6H-pyridazin-1-yl]-N-[1-(2-hydroxy-2-methyl-propyl)-1H-pyrazol-3-yl]-propionamide], the “SC1.5 average (concentration of activator that produced a 50% increase in the activity of GK)” value is reported as 26.185 µM.
For `CC(C)(O)Cn1ccc(NC(=O)[C@H](CC2CCCC2)n2ncc(Oc3cc(F)ccc3F)cc2=O)n1` [Example 33A, (S)-3-Cyclopentyl-2-[4-(2,5-difluoro-phenoxy)-6-oxo-6H-pyridazin-1-yl]-N-[1-(2-hydroxy-2-methyl-propyl)-1H-pyrazol-3-yl]-propionamide], the “SC1.5 average (concentration of activator that produced a 50% increase in the activity of GK)” value was 0.265 µM.
For `CC(C)(O)Cn1ccc(NC(=O)[C@@H](CC2CCCC2)n2ncc(Oc3cc(F)ccc3F)cc2=O)n1` [Example 33B, (R)-3-Cyclopentyl-2-[4-(2,5-difluoro-phenoxy)-6-oxo-6H-pyridazin-1-yl]-N-[1-(2-hydroxy-2-methyl-propyl)-1H-pyrazol-3-yl]-propionamide], the “SC1.5 average (concentration of activator that produced a 50% increase in the activity of GK)” value was 8.849 µM.
For `CC(C)(O)Cn1ccc(NC(=O)C(CC2CCCC2)n2ncc(Oc3ccccc3N3CCOCC3)cc2=O)n1` (stereo not shown) [Example 34, 3-Cyclopentyl-N-[1-(2-hydroxy-2-methyl-propyl)-1H-pyrazol-3-yl]-2-[4-(2-morpholin-4-yl-phenoxy)-6-oxo-6H-pyridazin-1-yl]-propionamide], the “SC1.5 average (concentration of activator that produced a 50% increase in the activity of GK)” value was 1.72 µM.
In the case of `CC(C)(O)Cn1ccc(NC(=O)C(CC2CCCC2)n2ncc(Oc3cccc(Oc4ccccc4)c3)cc2=O)n1` (stereo not shown) [Example 35, 3-Cyclopentyl-N-[1-(2-hydroxy-2-methyl-propyl)-1H-pyrazol-3-yl]-2-[6-oxo-4-(3-phenoxy-phenoxy)-6H-pyridazin-1-yl]-propionamide], the “SC1.5 average (concentration of activator that produced a 50% increase in the activity of GK)” value is reported as 2.173 µM.
With `CC(C)(O)Cn1ccc(NC(=O)[C@H](CC2CCCC2)n2ncc(Oc3c(F)cccc3F)cc2=O)n1` [Example 36A, (S)-3-Cyclopentyl-2-[4-(2,6-difluoro-phenoxy)-6-oxo-6H-pyridazin-1-yl]-N-[1-(2-hydroxy-2-methyl-propyl)-1H-pyrazol-3-yl]-propionamide] the “SC1.5 average (concentration of activator that produced a 50% increase in the activity of GK)” value was 0.034 µM.
For `CC(C)(O)Cn1ccc(NC(=O)[C@@H](CC2CCCC2)n2ncc(Oc3c(F)cccc3F)cc2=O)n1` [Example 36B, (R)-3-Cyclopentyl-2-[4-(2,6-difluoro-phenoxy)-6-oxo-6H-pyridazin-1-yl]-N-[1-(2-hydroxy-2-methyl-propyl)-1H-pyrazol-3-yl]-propionamide], the “SC1.5 average (concentration of activator that produced a 50% increase in the activity of GK)” value was 1.596 µM.
In the case of `CC(C)(O)Cn1ccc(NC(=O)C(CC2CCCC2)n2ncc(Oc3cccc4cnccc34)cc2=O)n1` (stereo not shown) [Example 37, 3-Cyclopentyl-N-[1-(2-hydroxy-2-methyl-propyl)-1H-pyrazol-3-yl]-2-[4-(isoquinolin-5-yloxy)-6-oxo-6H-pyridazin-1-yl]-propionamide], the “SC1.5 average (concentration of activator that produced a 50% increase in the activity of GK)” value is reported as 0.566 µM.
In the case of `CC(C)(O)Cn1ccc(NC(=O)[C@H](CC2CCCC2)n2ncc(Oc3cccc4cnccc34)cc2=O)n1` [Example 37A, (S)-3-Cyclopentyl-N-[1-(2-hydroxy-2-methyl-propyl)-1H-pyrazol-3-yl]-2-[4-(isoquinolin-5-yloxy)-6-oxo-6H-pyridazin-1-yl]-propionamide], the “SC1.5 average (concentration of activator that produced a 50% increase in the activity of GK)” value is reported as 0.238 µM.
With `CC(C)(O)Cn1ccc(NC(=O)[C@@H](CC2CCCC2)n2ncc(Oc3cccc4cnccc34)cc2=O)n1` [Example 37B, (R)-3-Cyclopentyl-N-[1-(2-hydroxy-2-methyl-propyl)-1H-pyrazol-3-yl]-2-[4-(isoquinolin-5-yloxy)-6-oxo-6H-pyridazin-1-yl]-propionamide] the “SC1.5 average (concentration of activator that produced a 50% increase in the activity of GK)” value was 18.488 µM.
